According to US6387893B1, “Spirotricyclic substituted azacycloalkane derivatives and uses thereof” (Merck & Co., Inc., priority 1999, dated 2002):
Where a name gives a salt, the structure may show the parent alone.

How the values were obtained:
[1] = target: T1, human alpha 1a adrenergic receptor (Homo sapiens, UniProt P35348); test: Screening assay: alpha 1a adrenergic receptor binding ([125I]-HEAT competition); conditions: membranes from stably transfected human alpha 1a cell line (ATCC CRL 11140), 100 pM [125I]-HEAT
T1 sequence (P35348 1-466): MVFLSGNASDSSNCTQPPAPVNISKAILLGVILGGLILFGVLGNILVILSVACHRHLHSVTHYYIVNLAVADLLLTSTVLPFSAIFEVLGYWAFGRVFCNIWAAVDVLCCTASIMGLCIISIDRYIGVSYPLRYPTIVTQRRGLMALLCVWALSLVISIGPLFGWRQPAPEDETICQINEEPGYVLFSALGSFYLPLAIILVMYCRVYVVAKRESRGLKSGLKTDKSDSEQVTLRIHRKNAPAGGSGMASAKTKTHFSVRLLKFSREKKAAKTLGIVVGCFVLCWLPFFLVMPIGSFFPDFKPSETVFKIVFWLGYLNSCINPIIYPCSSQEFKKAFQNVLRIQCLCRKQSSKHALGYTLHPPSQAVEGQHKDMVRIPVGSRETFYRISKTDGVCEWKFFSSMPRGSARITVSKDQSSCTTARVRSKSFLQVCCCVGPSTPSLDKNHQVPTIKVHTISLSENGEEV
Protocol: Screening Assay: Alpha 1a Adrenergic Receptor Binding
Membranes prepared from the stably transfected human alpha 1a cell line (ATCC CRL 11140) were used to identify compounds that bind to the human alpha 1a adrenergic receptor. These competition binding reactions (total volume=200 μl) contained 50 mM Tris-HCl pH. 7.4, 5 mM EDTA, 150 mM NaCl, 100 pM [^125I]-HEAT, membranes prepared from the alpha 1a cell line and increasing amounts of unlabeled ligand. Reactions were incubated at room temperature for one hour with shaking. Reactions were filtered onto Whatman GF/C glass fiber filters with a Inotec 96 well cell harvester. Filters were washed three times with ice cold buffer and bound radioactivity was determined (Ki).

Row | SMILES | Ki [1] [nM] | melting point [°C]
1 | COCC1=C(C(=O)OC)[C@H](c2ccc(F)c(F)c2)N(C(=O)NCCCN2CCC3(CC2)c2ccccc2-c2ccccc23)C(=O)N1 [Example 8, 1,2,3,6-tetrahydro-1-[(spirofluorene-9,4′-piperidin-1′-yl)propyl]aminocarbonyl-5-methoxycarbonyl-4-methoxymethyl-6(S)-(3,4-difluorophenyl)-2-oxopyrimidine] | < 20 | 
2 | O=C(NCCCN1CCC2(CC1)c1ccccc1[S+]([O-])c1ccccc12)N1C(=O)OC[C@@H]1c1ccc(F)c(F)c1 [Example 26, 1′-{3-[(4S)-(3,4-Difluorophenyl)-2-oxooxazolidin-3-carbonylamino]propyl}-(10-oxo-spirothioxanthene-9,4′-piperidine)] | < 20 | 
3 | O=C(NCCCN1CCC2(CC1)c1ccccc1Oc1ccc(Cl)cc12)N1C(=O)OC[C@@H]1c1ccc(F)c(F)c1 [Example 40, 1′-{3-[(4S)-(3,4-Difluorophenyl)-2-oxooxazolidin-3-carbonylamino]propyl}-2-chlorospiroxanthene-9,4′-piperidine] | < 20 | 
4 | O=C(NCCCN1CCC2(CC1)c1cc(Cl)ccc1Oc1ccc(Cl)cc12)N1C(=O)OC[C@@H]1c1ccc(F)c(F)c1 [Example 42, 1′-{3-[(4S)-(3,4-Difluorophenyl)-2-oxooxazolidin-3-carbonylamino]propyl}-2,7-dichlorospiroxanthene-9,4′-piperidine] | < 20 | 
5 | O=C(NCCCN1CCC2(CC1)c1cc(F)ccc1Oc1ccc(F)cc12)N1C(=O)OC[C@@H]1c1ccc(F)c(F)c1 [Example 44, 1′-{3-[(4S)-(3,4-Difluorophenyl)-2-oxooxazolidin-3-carbonylamino]propyl}-2,7-difluorospiroxanthene-9,4′-piperidine] | < 20 | 
6 | O=C1OC[C@H](c2ccc(F)c(F)c2)N1CCCCCN1CCC2(CC1)c1ccccc1Sc1ccccc12 (as salt: HCl) [Example 19, 4-(S)-(3,4-Difluorophenyl)-3-[5-(spirothioxanthen-9,4′-piperidin-1′-yl)-pentyl]-oxazolidin-2-one] |  | 90 to 130
7 | O=C1OC[C@H](c2ccc(F)c(F)c2)N1CCCCCCN1CCC2(CC1)c1ccccc1Sc1ccccc12 (as salt: HCl) [Example 20, 4-(S)-(3,4-Difluorophenyl)-3-[6-(spirothioxanthen-9,4′-piperidin-1′-yl)-hexyl]-oxazolidin-2-one] |  | 90 to 130
8 | COCC1=C(C(=O)OC)[C@H](c2ccc(F)c(F)c2)N(C(=O)NCCCN2CCC3(CC2)c2ccccc2[S+]([O-])c2ccccc23)C(=O)N1 (as salt: HCl) [Example 27, 1,2,3,6-tetrahydro-1-[(10-oxo-spirothioxanthene-9,4′-piperidin-1′-yl)propyl]aminocarbonyl-5-methoxycarbonyl-4-methoxymethyl-6(S)-(3,4-difluorophenyl)-2-oxopyrimidine] |  | 185 to 196
9 | O=C(NCCCN1CCC2(CC1)c1ccccc1CCc1ccccc12)N1C(=O)OC[C@@H]1c1ccc(F)c(F)c1 (as salt: hydrochloride) [Example 57, 1′-{3-[4(S)-(3,4-difluorophenyl)-2-oxooxazolidin-3-carbonylamino]-propyl}-(10,11-dihydrospiro-5H-dibenzo[a,d]cycloheptene)-5,4′-piperidine] |  | 146 to 177
10 | COCC1=C(C(=O)OC)[C@H](c2ccc(F)c(F)c2)N(C(=O)NCCCN2CCC3(CC2)c2ccccc2-c2ncccc23)C(=O)N1 (as salt: hydrochloride) [Example 49] |  | 157 to 180
11 | O=C(NCCCN1CCC2(CC1)c1ccccc1CCc1ccccc12)N1C(=O)OC[C@@H]1c1ccc(F)c(F)c1 [Example 57, 1′-{3-[4(S)-(3,4-difluorophenyl)-2-oxooxazolidin-3-carbonylamino]-propyl}-(10,11-dihydrospiro-5H-dibenzo[a,d]cycloheptene)-5,4′-piperidine] | < 20 | 
12 | O=C1OCC(c2ccc(F)c(F)c2)N1CCCCN1CCC2(CC1)c1ccccc1Sc1ccccc12 (centres unmarked) (as salt: HCl) |  | 97 to 132
13 | Cc1ccc(C2(c3ccc(C)cc3)NC(=O)N(CCCN3CCC4(CC3)c3ccccc3-c3ccc(Br)cc34)C2=O)cc1 [Example 10, 1′-[3-(5,5-Bis-p-tolyl-2,4-dioxoimidazolidin-3-yl)propyl]-2-bromospirofluorene-9,4′-piperidine] | < 20 | 
14 | COCC1=C(C(=O)OC)[C@H](c2ccc(F)c(F)c2)N(C(=O)NCCCN2CCC3(CC2)c2ccccc2-c2ccc(F)cc23)C(=O)N1 [Example 14, 1,2,3,6-tetrahydro-1-[((2-fluorospirofluorene-9,4′-piperidin)-1′-yl)propyl]aminocarbonyl-5-methoxycarbonyl-4-methoxymethyl-6(S)-(3,4-difluorophenyl)-2-oxopyrimidine] | < 20 | 
15 | O=C(NCCCN1CCC2(CC1)c1ccccc1Sc1ccccc12)N1C(=O)OC[C@@H]1c1ccc(F)c(F)c1 (as salt: HCl) |  | 140 to 176
16 | O=C(NCCCN1CCC2(CC1)c1ccccc1-c1ccccc12)N1C(=O)OC[C@@H]1c1ccc(F)c(F)c1 [Example 6, 1′-{3-[(4S)-(3,4-Difluorophenyl)-2-oxooxazolidin-3-carbonylamino]propyl}spirofluorene-9,4′-piperidine] | < 20 | 
17 | Cc1ccc(C2(c3ccc(C)cc3)NC(=O)N(CCCN3CCC4(CC3)c3ccccc3-c3ccccc34)C2=O)cc1 [Example 4, 1′-[3-(5,5-Bis-p-tolyl-2,4-dioxoimidazolidin-3-yl)propyl]spirofluorene-9,4′-piperidine] | < 20 | 
18 | COCC1=C(C(=O)OC)[C@H](c2ccc(F)c(F)c2)N(C(=O)NCCCN2CCC3(CC2)c2ccccc2-c2cccnc23)C(=O)N1 (as salt: hydrochloride) [Example 53, 1,2,3,6-tetrahydro-1-[3-((spiro(9H-indeno[2,1-b]pyridine)-9,4′-piperidin)-1′-yl)propylaminocarbonyl]-5-methoxycarbonyl-4-methoxymethyl-6(S)-(3,4-difluorophenyl)-2-oxopyrimidine] |  | 201 to 209
19 | COCC1=C(C(=O)OC)[C@H](c2ccc(F)c(F)c2)N(C(=O)NCCCN2CCC3(CC2)c2ccccc2-c2cccnc23)C(=O)N1 [Example 53, 1,2,3,6-tetrahydro-1-[3-((spiro(9H-indeno[2,1-b]pyridine)-9,4′-piperidin)-1′-yl)propylaminocarbonyl]-5-methoxycarbonyl-4-methoxymethyl-6(S)-(3,4-difluorophenyl)-2-oxopyrimidine] | < 20 | 
20 | COCC1=C(C(=O)OC)[C@H](c2ccc(F)c(F)c2)N(C(=O)NCCCN2CCC3(CC2)c2ccccc2[S+]([O-])c2ccccc23)C(=O)N1 [Example 27, 1,2,3,6-tetrahydro-1-[(10-oxo-spirothioxanthene-9,4′-piperidin-1′-yl)propyl]aminocarbonyl-5-methoxycarbonyl-4-methoxymethyl-6(S)-(3,4-difluorophenyl)-2-oxopyrimidine] | < 20 | 
21 | O=C(NCCCN1CCC2(CC1)c1ccccc1S(=O)(=O)c1ccccc12)N1C(=O)OC[C@@H]1c1ccc(F)c(F)c1 (as salt: HCl) [Example 32, 1′-{3-[(4S)-(3,4-Difluorophenyl)-2-oxooxazolidin-3-carbonylamino]propyl}-(10,10-dioxo-spirothioxanthene-9,4′-piperidine)] |  | 158 to 187
22 | O=C1OC[C@H](c2ccc(F)c(F)c2)N1CCCCCN1CCC2(CC1)c1ccccc1CCc1ccccc12 [Example 58, 1′-{5-[4(S)-(3,4-difluorophenyl)-2-oxooxazolidin-3-yl]-pentyl}-(10,11-dihydrospiro-5H-dibenzo[a,d]cycloheptene)-5,4′-piperidine] | < 20 | 
23 | O=C1OC[C@H](c2ccc(F)c(F)c2)N1CCCCCN1CCC2(CC1)c1ccccc1CCc1ccccc12 (as salt: hydrochloride) [Example 58, 1′-{5-[4(S)-(3,4-difluorophenyl)-2-oxooxazolidin-3-yl]-pentyl}-(10,11-dihydrospiro-5H-dibenzo[a,d]cycloheptene)-5,4′-piperidine] |  | 232 to 236
24 | O=C(NCCCN1CCC2(CC1)c1ccccc1S(=O)(=O)c1ccccc12)N1C(=O)OC[C@@H]1c1ccc(F)c(F)c1 [Example 32, 1′-{3-[(4S)-(3,4-Difluorophenyl)-2-oxooxazolidin-3-carbonylamino]propyl}-(10,10-dioxo-spirothioxanthene-9,4′-piperidine)] | < 20 | 
25 | COCC1=C(C(=O)OC)[C@H](c2ccc(F)c(F)c2)N(C(=O)NCCCN2CCC3(CC2)c2ccccc2S(=O)(=O)c2ccccc23)C(=O)N1 [Example 33, 1,2,3,6-tetrahydro-1-[(10,10-dioxo-spirothioxanthene-9,4′-piperidin-1′-yl)propyl]aminocarbonyl-5-methoxycarbonyl-4-methoxymethyl-6(S)-(3,4-difluorophenyl)-2-oxopyrimidine] | < 20 | 
26 | COCC1=C(C(=O)OC)[C@H](c2ccc(F)c(F)c2)N(C(=O)NCCCN2CCC3(CC2)c2ccccc2-c2ncccc23)C(=O)N1 [Example 49] | < 20 | 
